# Laboratory results as given in patent US8993574B2, “Pyrrole antifungal agents” (F2G Ltd, priority 2008, dated 2015).
# Experiments:
# Type in all cases: cell-based
# Aspergillus flavus [1] = assay: MIC, YAG medium; details: 24 h at 35° C, MIC banded into grades; for MIC: Aspergillus flavus, 24 h, read-out: MIC grade, A. flavus
# How it was run: (§1)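 OD 485 nm read-out after 24 h at 35° C; MIC = lowest concentration inhibiting growth >70% vs drug-free control, in mg/L. Inoculum 1−2×10^4 cfu/mL in YAG medium; drug range 50-0.05 mg/L, retested at 0.5-0.0005 mg/L when needed.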
# [2] = tested on: Aspergillus fumigatus AF210; assay: MIC, YAG medium; details: 24 h at 35° C, MIC banded into grades; for MIC: Aspergillus fumigatus, read-out: MIC grade, A. fumigatus 210
# How it was run: as §1
# [3] = tested on: Aspergillus fumigatus AF293; assay: MIC, YAG medium; details: 24 h at 35° C, MIC banded into grades; for MIC: Aspergillus fumigatus, read-out: MIC grade, A. fumigatus
# How it was run: as §1
# Aspergillus niger [4] = assay: MIC, YAG medium; details: 24 h at 35° C, MIC banded into grades; for MIC: Aspergillus niger, read-out: MIC grade, A. niger
# How it was run: as §1
# Aspergillus terreus AT49 [5] = assay: MIC, YAG medium; details: 24 h at 35° C, MIC banded into grades; for MIC: Aspergillus terreus, read-out: MIC grade, A. terreus 49
# How it was run: as §1
# Aspergillus terreus AT4 [6] = assay: MIC, YAG medium; details: 24 h at 35° C, MIC banded into grades; for MIC: Aspergillus terreus, read-out: MIC grade, A. terreus
# How it was run: as §1
# Aspergillus flavus [7] = assay: MIC, RPMI medium; details: MIC banded into grades; for MIC: Aspergillus flavus, read-out: MIC grade, A. flavus
# How it was run: (§2)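 Minimum inhibitory concentrations were determined in glucose-supplemented (2%) RPMI buffered to pH 7.0 with 0.135 M MOPS. Wells held 1−2×10^4 cfu/mL and compound from 50 to 0.05 mg/L, incubated 24-48 h at 35° C, with >80% growth reduction by OD 485 nm as endpoint.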
# [8] = tested on: Aspergillus fumigatus AF210; assay: MIC, RPMI medium; details: for MIC: Aspergillus fumigatus, AF210, MIC banded into grades, read-out: MIC grade, A. fumigatus 210
# How it was run: as §2
# [9] = tested on: Aspergillus fumigatus AF293; assay: MIC, RPMI medium; details: for MIC: Aspergillus fumigatus, AF293, MIC banded into grades, read-out: MIC grade, A. fumigatus
# How it was run: as §2
# Aspergillus niger [10] = assay: MIC, RPMI medium; details: MIC banded into grades; for MIC: Aspergillus niger, read-out: MIC grade, A. niger
# How it was run: as §2
# Aspergillus terreus AT49 [11] = assay: MIC, RPMI medium; details: for MIC: Aspergillus terreus, AT49, MIC banded into grades, read-out: MIC grade, A. terreus 49
# How it was run: as §2
# Aspergillus terreus AT4 [12] = assay: MIC, RPMI medium; details: for MIC: Aspergillus terreus, AT4, MIC banded into grades, read-out: MIC grade, A. terreus
# How it was run: as §2
# Candida albicans = assay: MIC, RPMI medium; details: 24-48 h at 35° C., >80% growth inhibition, banded into grades; for MIC: Candida albicans
# How it was run: as §2
# Candida glabrata = assay: MIC, RPMI medium; details: 24-48 h at 35° C., >80% growth inhibition, banded into grades; for MIC: Nakaseomyces glabratus
# How it was run: as §2
# Candida krusei = assay: MIC, RPMI medium; details: 24-48 h at 35° C., >80% growth inhibition, banded into grades; for MIC: Pichia kudriavzevii
# How it was run: as §2
# Candida parapsilosis = assay: MIC, RPMI medium; details: 24-48 h at 35° C., >80% growth inhibition, banded into grades; for MIC: Lodderomyces parapsilosis
# How it was run: as §2
# Candida tropicalis = assay: MIC, RPMI medium; details: 24-48 h at 35° C., >80% growth inhibition, banded into grades; for MIC: Candida tropicalis
# How it was run: as §2
SMILES,MIC (Aspergillus flavus [1]),MIC [2],MIC [3],MIC (Aspergillus niger [4]),MIC (Aspergillus terreus AT49 [5]),MIC (Aspergillus terreus AT4 [6]),MIC (Aspergillus flavus [7]),MIC [8],MIC [9],MIC (Aspergillus niger [10]),MIC (Aspergillus terreus AT49 [11]),MIC (Aspergillus terreus AT4 [12]),MIC (Candida albicans),MIC (Candida glabrata),MIC (Candida krusei),MIC (Candida parapsilosis),MIC (Candida tropicalis),other results
"COCCn1ccc(C2CCC2)c1C(=O)C(=O)Nc1ccc(N2CCN(c3cc(C)cc(C)n3)CC2)cc1 [Example 104, 2-[3-Cyclobutyl-1-(2-methoxy-ethyl)-1H-pyrrol-2-yl]-N-{4-[4-(4,6-dimethyl-pyridin-2-yl)-piperizin-1-yl]-phenyl}-2-oxo-acetamide]",,,,,,,,,,,,,,,,,,"MIC grade, A. flavus (Aspergillus flavus [1]): 1 (a grade of 1 represents an MIC of greater than 10 mg/L); MIC grade, A. fumigatus 210 [2]: 2 (A grade of 2 represents an MIC of from 1 to 10 mg/L); MIC grade, A. fumigatus [3]: 2 (A grade of 2 represents an MIC of from 1 to 10 mg/L); MIC grade, A. niger (Aspergillus niger [4]): 1 (a grade of 1 represents an MIC of greater than 10 mg/L); MIC grade, A. terreus 49 (Aspergillus terreus AT49 [5]): 2 (A grade of 2 represents an MIC of from 1 to 10 mg/L); MIC grade, A. terreus (Aspergillus terreus AT4 [6]): 2 (A grade of 2 represents an MIC of from 1 to 10 mg/L); MIC grade, A. flavus (Aspergillus flavus [7]): 1 (a grade of 1 represents an MIC of greater than 10 mg/L); MIC grade, A. fumigatus 210 ([8]; MIC banded into grades): 1 (a grade of 1 represents an MIC of greater than 10 mg/L); MIC grade, A. fumigatus ([9]; MIC banded into grades): 1 (a grade of 1 represents an MIC of greater than 10 mg/L); MIC grade, A. niger (Aspergillus niger [10]): 1 (a grade of 1 represents an MIC of greater than 10 mg/L); MIC grade, A. terreus 49 (Aspergillus terreus AT49 [11]; MIC banded into grades): 1 (a grade of 1 represents an MIC of greater than 10 mg/L); MIC grade, A. terreus (Aspergillus terreus AT4 [12]; MIC banded into grades): 1 (a grade of 1 represents an MIC of greater than 10 mg/L); Candida MIC, C. albicans (Candida albicans): 2 (A grade of 2 represents an MIC of from 1 to 10 mg/L); Candida MIC, C. glabrata (Candida glabrata): 3 (A grade of 3 represents an MIC of less than 1 mg/L); Candida MIC, C. krusei (Candida krusei): 2 (A grade of 2 represents an MIC of from 1 to 10 mg/L); Candida MIC, C. parapsilosis (Candida parapsilosis): 3 (A grade of 3 represents an MIC of less than 1 mg/L); Candida MIC, C. tropicalis (Candida tropicalis): 3 (A grade of 3 represents an MIC of less than 1 mg/L)"
"COCCn1ccc(-c2ccccc2)c1C(=O)C(=O)Nc1ccc(N2CCN(c3cc(C)cc(C)n3)CC2)cc1 [Example 47, N-{4-[4-(4,6-Dimethyl-pyridin-2-yl)-piperazin-1-yl]-phenyl}-2-[1-(2-methoxy-ethyl)-3-phenyl-1H-pyrrol-2-yl]-2-oxo-acetamide]",< 1 µg/mL,< 1 µg/mL,< 1 µg/mL,1 to 10 µg/mL,< 1 µg/mL,1 to 10 µg/mL,1 to 10 µg/mL,1 to 10 µg/mL,1 to 10 µg/mL,1 to 10 µg/mL,1 to 10 µg/mL,1 to 10 µg/mL,1 to 10 µg/mL,< 1 µg/mL,1 to 10 µg/mL,1 to 10 µg/mL,1 to 10 µg/mL,
"Cc1cc(C)nc(N2CCN(c3ccc(NC(=O)C(=O)c4c(-c5ccccc5)cc(C)n4CCN(C)C)cc3)CC2)c1 [Example 86, 2-[1-(2-Dimethylamino-ethyl)-5-methyl-3-phenyl-1H-pyrrol-2-yl]-N-{4-[4-(4,6-dimethyl-pyridin-2-yl)-piperazin-1-yl]-phenyl}-2-oxo-acetamide]",1 to 10 µg/mL,> 10 µg/mL,> 10 µg/mL,> 10 µg/mL,> 10 µg/mL,> 10 µg/mL,> 10 µg/mL,> 10 µg/mL,> 10 µg/mL,> 10 µg/mL,> 10 µg/mL,> 10 µg/mL,< 1 µg/mL,< 1 µg/mL,< 1 µg/mL,< 1 µg/mL,< 1 µg/mL,
"Cc1cc(C)nc(N2CCN(c3ccc(NC(=O)C(=O)c4c(-c5cccs5)cc(C)n4C)cc3)CC2)c1 [Example 13, N-{4-[4-(4,6-Dimethyl-pyridin-2-yl)-piperazin-1-yl]-phenyl}-2-(1,5-dimethyl-3-thiophen-2-yl-1H-pyrrol-2-yl)-2-oxo-acetamide]",< 1 µg/mL,< 1 µg/mL,< 1 µg/mL,< 1 µg/mL,< 1 µg/mL,< 1 µg/mL,< 1 µg/mL,< 1 µg/mL,< 1 µg/mL,< 1 µg/mL,< 1 µg/mL,< 1 µg/mL,< 1 µg/mL,< 1 µg/mL,< 1 µg/mL,< 1 µg/mL,< 1 µg/mL,
"COCCn1ccc(CC(C)C)c1C(=O)C(=O)Nc1ccc(N2CCN(c3cc(C)cc(C)n3)CC2)cc1 [Example 68, N-{4-[4-(4,6-Dimethyl-pyridin-2-yl)-piperazin-1-yl]-phenyl}-2-[3-isobutyl-1-(2-methoxy-ethyl)-1H-pyrrol-2-yl]-2-oxo-acetamide]",> 10 µg/mL,> 10 µg/mL,1 to 10 µg/mL,> 10 µg/mL,1 to 10 µg/mL,1 to 10 µg/mL,> 10 µg/mL,> 10 µg/mL,> 10 µg/mL,> 10 µg/mL,> 10 µg/mL,> 10 µg/mL,< 1 µg/mL,< 1 µg/mL,1 to 10 µg/mL,< 1 µg/mL,< 1 µg/mL,
"COCCn1c(C)cc(-c2ccccc2)c1C(=O)C(=O)Nc1ccc(N2CCN(c3cc(C)cc(C)n3)CC2)cc1 [Example 9, N-{4-[4-(4,6-Dimethyl-pyridin-2-yl)-piperazin-1-yl]-phenyl}-2-[1-(2-methoxy-ethyl)-5-methyl-3-phenyl-1H-pyrrol-2-yl]-2-oxo-acetamide]",< 1 µg/mL,< 1 µg/mL,< 1 µg/mL,< 1 µg/mL,< 1 µg/mL,< 1 µg/mL,> 10 µg/mL,< 1 µg/mL,< 1 µg/mL,< 1 µg/mL,1 to 10 µg/mL,1 to 10 µg/mL,1 to 10 µg/mL,< 1 µg/mL,< 1 µg/mL,< 1 µg/mL,1 to 10 µg/mL,
"Cc1cc(C)nc(N2CCN(c3ccc(NC(=O)C(=O)c4cc(-c5ccccc5)cn4CCN(C)C)cc3)CC2)c1 [Example 85, 2-[1-(2-Dimethylamino-ethyl)-4-phenyl-1H-pyrrol-2-yl]-N-{4-[4-(4,6-dimethyl-pyridin-2-yl)-piperazin-1-yl]-phenyl}-2-oxo-acetamide]",> 10 µg/mL,> 10 µg/mL,> 10 µg/mL,1 to 10 µg/mL,> 10 µg/mL,> 10 µg/mL,> 10 µg/mL,> 10 µg/mL,> 10 µg/mL,1 to 10 µg/mL,1 to 10 µg/mL,1 to 10 µg/mL,1 to 10 µg/mL,1 to 10 µg/mL,1 to 10 µg/mL,1 to 10 µg/mL,1 to 10 µg/mL,
